Series [1] relates to U2OS cells. As to the kind of experiment: Multiplexed CF-PE / Dye 1 / Hoechst 33342 microplate assay distinguishing phospholipidosis from autophagy pathway inhibition. The series is classed as cell-based, human. Particulars: 24 h with CF-PE medium and test compound. On the procedure:
For example, CF-PE was suspended in ethanol and diluted in the cell culture medium (McCoy's 5a modified medium, as described in Example 3) to give a solution (CF-PE medium) with final concentration of 50 μM (0.46% ethanol). […] medium was then sonicated and filtered through a […] filter. The prepared was then applied to U2OS cells growing in a 96-well microplate. After an equilibration period of 24 h, the cell culture medium was replaced with CF-PE medium with or without each test compound, and the cells were incubated at 37° C. for an additional 24 h. After incubation, the cells were rinsed with medium and further incubated with the same medium containing Dye 1 and Hoechst 33342 dye for an additional 15 min at 37° C. in 5% CO2 atmosphere.
Fluorescence signal was determined using a standard microplate reader, as described in example 4, except that CF-PE was additionally read at an excitation wavelength of 492 nm and an emission wavelength of 517 nm. […] Generalized cytotoxicity is evident as a substantial decrease in blue signal (≧30%) relative to vehicle-treated control cells.

For series [2], the system named is U2OS cells. Description: Cell number per well by Hoechst 33342 fluorescence (generalized compound toxicity). Particulars: for Relative Hoechst Stain (intensity of Hoechst 33342 fluorescence of treated cells compared to the untreated control; number of cells remaining): 18 hours, single concentration per compound; for generalized cellular toxicity (loss of cells / decrease in Hoechst 33342 signal): greater than 30% decrease in cell number flagged as toxic.
Method: (§1) Fluorescence intensity of the cells cultured on the 96-well plates was measured using a FLUOstar OPTIMA Multifunction Microplate Reader (BMG LabTech, Offenburg, Germany). […] Fluorescence intensity was expressed as percentage of the vehicle control value.
(§2) In the preliminary screen, test agents were employed at a single dose in an effort to identify any potential lysosome-modifying agents.

The test system of series [3] is U2OS cells. As to the kind of experiment: Fluorescence microplate-based lysosomal perturbation assay (Dye 1 fluorescence), incl. ICCB library screen. The following applies: for Relative Lyso Stain (intensity of Dye 1 fluorescence of treated cells compared to the untreated control): 18 hours, single concentration per compound; for vacuolation / expansion of lysosomal compartment detected by Dye 1 assay: Dye 1 stained post drug incubation; for hit call in ICCB library screen (Dye 1 accumulation): ICCB known bioactives library screen.
Method: In order to increase throughput and reduce handling time, the fluorescence microscopy-based lysosomal perturbation assay was scaled up to a 96-well microplate plate assay format and analyzed using a fluorescence microplate reader.
as §1, §2

The subject of series [4] is U2OS cells. Description: Lipid-Tox fluorescent phospholipid analog-based phospholipidosis assay. The series is classed as cell-based, human. The following applies: 24 hours co-incubation with Lipid-Tox dye and drug. The method, then: Many assays of phospholipidosis, including the Lipid-Tox assay (Invitrogen, Carlsbad, Calif.), are based upon co-incubating cells with a fluorescent phospholipid analog for an extended period of time, along with the drug or test agent being evaluated, and then monitoring signal generation in fixed and permeabilized cells. Dye 1 is not a fluorescent phospholipid analog, but instead is a cationic amphiphilic fluorophore tracer. Cells are incubated with the drug or test agent in isolation and then briefly treated with the tracer dye before evaluation in live cells. […] Choloroquine, a prototypical phospholipidosis-inducing agent, and bafilomycin A, an agent well known to induce the accumulation of autophagosomes, were evaluated using both Dye 1 and Lipid-Tox dye-based assays (FIG. 3). […] Cells stained with Lipid-Tox dye (solid triangles dash-dot line) were incubated in the presence of the fluorescent lipid for 24 hours during treatment with the drugs.

The nature of series [5]: pH dependence of Dye 1 fluorescence. The series is classed as physicochemical. Particulars: pH range of 4.0 to 9.0.
Another series concerns cultured cells. The following applies: high micromolar concentrations; cited from earlier work.
Series [6] deals with U2OS cells. The following applies: for Relative Hoechst Stain (intensity of Hoechst 33342 fluorescence of treated cells compared to the untreated control; number of cells remaining): human, 18 h.
Method: as §1, §2
In series [7] the test system is U-2-OS human osteosarcoma cells. Description: In vitro model of sphingolipidosis (Niemann-Pick mimic), microplate readout at 680 nm and 480 nm. The series is classed as cell-based. The text has this:
Stable cell lines derived from patients with Niemann-Pick disease can not be found in cell line repositories, such as American Type […] Collection (Manassas, Va.), and are not readily available to the research community. Consequently, an in vitro tissue culture model of sphingolipidosis was devised using 2R,3S,4E)-N-methyl-5-(4′pentylphenyl)-2-aminopent-4-ene-1,3-diol, designated SK1-I (BML-258), a potent, water soluble, isozyme-specific inhibitor of sphingosine kinase-1. […] U-2-OS human osteosarcoma cells were seeded at 22,500 cells/well, grown overnight, and then treated with a final concentration of 0, 2.5, 5, 10 or 20 μM of SK1-I for 18.5 hours. Next, the cells were briefly treated with compound 1 and the nuclear Hoechst 33342 dye, as described in Example 7. Fluorescence signal was read on a BioTek Synergy Mx microplate reader at excitation values of 340 and 540 nm and emission values of 480 and 680 nm. […] Fluorescence microscope-based examination of the wells confirmed that compound 1 staining of the cells was confined to the vacuolar structures. This in vitro model confirms the feasibility of using the assay for detecting aberrant accumulation of sphingolipids in cells, and by extension the feasibility of using the assay in monitoring inherited lysosomal storage diseases, such as Niemann-Pick disease.

The test system of series [8] is U2OS human osteosarcoma cells. As to the kind of experiment: Fluorescence microscopy-based lysosomal perturbation assay (Dye 1 staining). It counts as cell-based. The following applies: U2OS cells pre-treated with drug (chloroquine 8-64 μM, 18 hours), Dye 1 15 min. On the procedure: U2OS human osteosarcoma cells were maintained in McCoy's 5a modified medium supplemented with 10% FBS and 100 units/ml penicillin/streptomycin (Invitrogen, Carlsbad, Calif.) in a humidified 37° C., 5% CO2 environment. Cells were allowed to proliferate on glass slides or were seeded into 96-well plates at a density of 2×10^4 cells/well and allowed to attach overnight. The cells were plated such that at the end of the experiment, they reached about 90% confluency.
The fluorescence-based lysosomal perturbation assay was established by first incubating cells cultivated on glass slides for 4-24 hours with chloroquine (8-64 μM final concentration), a well known phospholipidosis-inducing agent. Control cells were incubated with 0.1% (v/v) dimethyl sulfoxide (DMSO), which served as the vehicle control. Cells were then briefly (15 min) incubated with a combination of Dye 1 and Hoechst 33342 dye. Following incubation, cells grown on glass microscope slides were covered with glass coverslips, sealed with nail polish and observed using an inverted Axiovert 200M microscope (Carl Zeiss, Inc., Oberkochen, Germany). Images were acquired with a 63× objective lens (Zeiss).
Cells were subsequently stained with Dye 1 for 15 minutes. Nuclei were counter-stained with Hoechst 33342 dye. In FIG. 1, control U2OS cells are shown in (A), cells pre-treated for 18 hours with 8 μM chloroquine in (B), cells pre-treated for 18 hours with 16 μM chloroquine in (C) and cells pre-treated for 18 hours with 64 μM chloroquine in (D). This staining pattern was also consistently observed for other drugs that are known to induce phospholipidosis, such as chlorpromazine, fluoxetine, pimozide and verapamil (further described in Example 4). […] The ability of Dye 1 to detect vacuole accumulation in the described in vitro cell culture model mimicking Fabry disease strongly supports the present invention and its suitability for the detection of genetically derived lysosomal storage diseases.

[9] abbreviates: Homo sapiens, 18 h, read-out: EC50 (Dye 1-based assay).

SMILES strings stand for the structures. Like-named read-outs stand apart in the source and are kept apart here.

By EC50 is commonly meant the midpoint of the concentration-response curve.

In the case of `CO/C1=C\C(C)=C\[C@@H](C)[C@@H](O)[C@@H](C)C/C(C)=C/C=C/[C@H](OC)[C@@H]([C@@H](C)[C@@H](O)[C@H](C)[C@@]2(O)C[C@@H](O)[C@H](C)[C@@H](C(C)C)O2)OC1=O` [Bafilomycin A1], in the series on U2OS cells [1] (ex 492 nm, em 517 nm), the “green signal (CF-PE) relative to vehicle-treated controls” value was “low green signal”. For the same molecule, the “red signal (Dye 1) relative to vehicle-treated controls” value in the series on U2OS cells [1] (then Dye 1 15 min) is on record as “increased red signal”. Further, in the series with U2OS cells [2], the “Relative Hoechst Stain (intensity of Hoechst 33342 fluorescence of treated cells compared to the untreated control; number of cells remaining)” value is given as 58% and the “generalized cellular toxicity (loss of cells / decrease in Hoechst 33342 signal)” value is “cytotoxic”. Further, in the series with U2OS cells [3], the “Relative Lyso Stain (intensity of Dye 1 fluorescence of treated cells compared to the untreated control)” value (“Relative Lyso Stain” below) was 176%; the “vacuolation / expansion of lysosomal compartment detected by Dye 1 assay” value was “increase vacuole number and volume”. In addition, the “vacuolation / expansion of lysosomal compartment detected by Dye 1 assay” value with U2OS cells [3] (listed as bafilomycin A) is “increased vacuolation”. The EC50 in the series with U2OS cells [3] (read-out: calculated EC50 value in Dye 1 based assay, 24 hours treatment, Dye 1 15 minutes post drug) is 0.003 µM. Also, in the series on U2OS cells [4], the “vacuolation / expansion of lysosomal compartment detected by Lipid-Tox assay” value is “only Dye 1 identified the increased vacuolation”.

As for `CN(C)CCNc1c(F)c(F)c(NCCN(C)C)c2c1C(=O)c1c(O)ccc(O)c1C2=O` [Dye 1, 1,4-bis(2-(dimethylamino)ethylamino)-2,3-difluoro-5,8-dihydroxyanthracene-9,10-dione], the “fluorescence emission intensity and wavelength maximum versus pH” value in [5] is listed as “not significantly altered”.

With `CN(C)CCCn1cc(C2=C(c3c[nH]c4ccccc34)C(=O)NC2=O)c2ccccc21` [GF-109203X], the “Relative Hoechst Stain (intensity of Hoechst 33342 fluorescence of treated cells compared to the untreated control; number of cells remaining)” value in the series on U2OS cells [2] is 87%. The “Relative Lyso Stain” value in the series on U2OS cells [3] came out at 197%.

With `CC(C)NCC(O)COc1cccc2ccccc12` (centres unmarked) [Propranolol (S-), Propranolol], in the series with cultured cells, the “time to half maximum uptake” value is 4 to 10 min and the “time to steady state of cellular uptake” value is 40 to 60 min.

With `CCCCOc1cc(CC2CNC(=O)N2)ccc1OC` (centres unmarked) [Ro 20-1724], the “Relative Hoechst Stain (intensity of Hoechst 33342 fluorescence of treated cells compared to the untreated control; number of cells remaining)” value in the series on U2OS cells [6] amounted to 53%. Besides, the “Relative Lyso Stain” value in the series on U2OS cells [3] was found to be 190%.

As for `Cn1cc(C2=C(c3cn(CCCSC(=N)N)c4ccccc34)C(=O)NC2=O)c2ccccc21` [Ro 31-8220], the “Relative Hoechst Stain (intensity of Hoechst 33342 fluorescence of treated cells compared to the untreated control; number of cells remaining)” value with U2OS cells [2] is recorded as 89%. In addition, in the series with U2OS cells [3], the “Relative Lyso Stain” value was 146% and the “hit call in ICCB library screen (Dye 1 accumulation)” value (“hit call in ICCB library screen” for short) was “positive hit”.

As to `CC(=O)c1c(O)c(C)c(O)c(Cc2c(O)c3c(c(C(=O)/C=C/c4ccccc4)c2O)OC(C)(C)C=C3)c1O` [Rottlerin], in the series with U2OS cells [2], the “Relative Hoechst Stain (intensity of Hoechst 33342 fluorescence of treated cells compared to the untreated control; number of cells remaining)” value is given as 34% and the “generalized cellular toxicity (loss of cells / decrease in Hoechst 33342 signal)” value was “generally cytotoxic”. For the same molecule, the “generalized cellular toxicity (loss of cells / decrease in Hoechst 33342 signal)” value in the series on U2OS cells [2] (listed as rottlerin) is “significant toxicity”. Moreover, in the series with U2OS cells [3], the “Relative Lyso Stain” value was determined as 187% and the “hit call in ICCB library screen” value is listed as “false positive hit”.

Consider `NC(=O)c1ccc(-c2nc(-c3ccc4c(c3)OCO4)c(-c3ccccn3)[nH]2)cc1` [SB-431542], for which the “Relative Hoechst Stain (intensity of Hoechst 33342 fluorescence of treated cells compared to the untreated control; number of cells remaining)” value with U2OS cells [6] is recorded as 101%. Besides, in the series with U2OS cells [3], the “Relative Lyso Stain” value turned out to be 154% and the “hit call in ICCB library screen” value is recorded as “positive hits”.

Consider `CCCCCc1ccc(/C=C/[C@H](O)[C@@H](CO)NC)cc1` [SK1-I], for which the “emission values at 680 nm (accumulation of sphingolipids within the vacuolar compartment)” value in [7] (U-2-OS, 0, 2.5, 5, 10 or 20 μM for 18.5 hours) is “Dose-dependent increases”. In series [7] (U-2-OS, 0-20 μM for 18.5 hours), the “cell viability (480 nm emission intensity from Hoechst dye)” value is “Cell viability was maintained under all treatment conditions”.

In the case of `CC(C)(C)c1cc(C=C(C#N)C#N)cc(C(C)(C)C)c1O` [Tyrphostin 9], in the series with U2OS cells [2], the “Relative Hoechst Stain (intensity of Hoechst 33342 fluorescence of treated cells compared to the untreated control; number of cells remaining)” value amounted to 31%. Also, the “Relative Lyso Stain” value in the series with U2OS cells [3] is listed as 200%.

Take `CN(C)CCCN1c2ccccc2Sc2ccc(Cl)cc21` [chlorpromazine]: in [8], the “punctate pattern of cytoplasmic staining / levels of Dye 1 in the cells” value is given as “increased in a dose-dependent manner”. Moreover, the EC50 in the series with U2OS cells [3] (setting [9]) was determined as 6 µM.

Regarding `CNCCC(Oc1ccc(C(F)(F)F)cc1)c1ccccc1` (centres unmarked) [fluoxetine], in the series with U2OS cells [6], the “generalized cellular toxicity (loss of cells / decrease in Hoechst 33342 signal)” value is “toxic doses”. For the same molecule, the “punctate pattern of cytoplasmic staining / levels of Dye 1 in the cells” value in series [8] is “increased in a dose-dependent manner”.

In the case of `O=c1[nH]c2ccccc2n1C1CCN(CCCC(c2ccc(F)cc2)c2ccc(F)cc2)CC1` [pimozide], the “generalized cellular toxicity (loss of cells / decrease in Hoechst 33342 signal)” value with U2OS cells [6] is recorded as “toxic doses”.

For `COc1ccc(CCN(C)CCCC(C#N)(c2ccc(OC)c(OC)c2)C(C)C)cc1OC` (centres unmarked) [verapamil], the “punctate pattern of cytoplasmic staining / levels of Dye 1 in the cells” value in [8] is “increased in a dose-dependent manner”. In addition, in the series on U2OS cells [3] (setting [9]), the EC50 came out at 30 µM.
